Results on 24 compounds are retold here after US5071965A, “Novel TC-99M complexes” (Mallinckrodt Medical, Inc., priority 1989, dated 1991).

Where two headings read alike, the source gives them in different places.

For series [1] the following is noted: literature, Green et al. 1985; cited from earlier work.
For series [2] the following is noted: in vivo; cited from earlier work.
For series [3] the following is noted: rat, in vivo; cited from earlier work.
Series [4] is described as follows: Biodistribution of Tc-99m complexes in guinea pigs (heart uptake, heart/blood). The following applies: 5 minutes, Tc-99m complex; for 5 Minute Guinea Pig % HT Uptake: jugular vein injection.
Method: (§1) The procedures used for determining biodistribution are as follows.
(§2) Guinea Pigs--The guinea pigs are anesthetized and the technetium complex is injected into the jugular vein after a cutdown. The animals are sacrificed after 5 minutes and the organs removed and counted as with the rats.
(§3) For guinea pigs, significant heart uptake is determined if the percentage of technetium in the heart is greater than 0.5% and the heart/blood ratio is greater than 1.
For series [5] the following is noted: in vivo, 5 min.
Method: as §1, §2, §3

Consider `COc1ccc(O)c(C=NCC(C)(CN=Cc2cc(OC)ccc2O)CN=Cc2cc(OC)ccc2O)c1` (centres unmarked) [1,1,1-tris (5-methoxysalicyl-aldiminomethyl) ethane], for which the overall charge result in series [1] was “no overall charge”. For the same compound, the “washout from the heart (images of a dog's heart)” value in series [2] is recorded as “washed out quickly from the heart”. The “washout from the heart (biodistribution data in rats)” value in series [3] is recorded as “washed out quickly from the heart”.

For `Cc1ccc(O)c(C=NCC(C)(CN=Cc2cc(C)ccc2O)CN=Cc2cc(C)ccc2O)c1` (centres unmarked) [R5=H, R6=H, R7=CH3, R8=H, R3=H, R4=CH3], in series [4], the “Guinea Pig Heart/Blood Ratio” value is 18 and the “5 Minute Guinea Pig % HT Uptake” value was determined as 1.82%.

As for `CC(=NCC(C)(CN=C(C)c1cc(F)ccc1O)CN=C(C)c1cc(F)ccc1O)c1cc(F)ccc1O` (centres unmarked) [R5=H, R6=H, R7=F, R8=H, R3=CH3, R4=CH3, 1',1',1'-tris(5-fluoro-2-hydroxyacetophenoiminemethyl)ethane], in series [5], the “5 Minute Guinea Pig % HT Uptake” value is on record as 0.66%.

Consider `CC(CN=Cc1cc(F)ccc1O)(CN=Cc1cc(F)ccc1O)CN=Cc1cc(F)ccc1O` (centres unmarked) [R5=H, R6=H, R7=F, R8=H, R3=H, R4=CH3], for which the “5 Minute Guinea Pig % HT Uptake” value in series [4] is on record as 1.30%.

Turning to `Oc1ccccc1C=NCCN(CCN=Cc1ccccc1O)CCN=Cc1ccccc1O` [R5=H, R6=H, R7=H, R8=H, R3=H, R4=--, tris(2-salicylideneiminoethyl)amine], in series [4], the “5 Minute Guinea Pig % HT Uptake” value was 0.84%.

As to `Oc1ccccc1C=NCC(CN=Cc1ccccc1O)CN=Cc1ccccc1O` (centres unmarked) [R5=H, R6=H, R7=H, R8=H, R3=H, R4=H, phenol, 2,2'-[[2-[[[ (2-hydroxyphenyl)methylene]amino]methyl]-1,3-propanediyl]bis(nitrilomethylidyne)]bis-], the “5 Minute Guinea Pig % HT Uptake” value in series [4] is given as 1.29%.

On to `COc1cccc(O)c1C=NCC(C)(CN=Cc1c(O)cccc1OC)CN=Cc1c(O)cccc1OC` (centres unmarked) [R5=H, R6=H, R7=H, R8=OCH3, R3=H, R4=CH3, 3-Methoxyphenol, 2,2'-[[2-[[[(6-methoxy-2-hydroxyphenyl)methylene]amino]methyl]-2-methyl-1,3-propanediyl]bis(nitrilomethylidyne)]bis-], for which, in series [4], the “5 Minute Guinea Pig % HT Uptake” value is 1.55%.

Take `CSc1ccc(O)c(C=NCC(C)(CN=Cc2cc(SC)ccc2O)CN=Cc2cc(SC)ccc2O)c1` (centres unmarked) [R5=H, R6=H, R7=SCH3, R8=H, R3=H, R4=CH3, 4-methylthiophenol, 2,2'-[[2-[[[(5-methylthio-2-hydroxyphenyl)methylene]amino-]methyl]-2-methyl-1,3-propanediyl]bis(nitrilomethylidyne)]bis-]: the “5 Minute Guinea Pig % HT Uptake” value in series [4] came to 1.23%.

On to `COc1ccc(C=NCC(C)(CN=Cc2ccc(OC)cc2O)CN=Cc2ccc(OC)cc2O)c(O)c1` (centres unmarked) [R5=H, R6=OCH3, R7=H, R8=H, R3=H, R4=CH3, 3-Methoxyphenol, 6,6'-[[2-[[[(4-methoxy-2-hydroxyphenyl)methylene]amino]methyl]-2-methyl-1,3-propanediyl]bis(nitrilomethylidyne)]bis-], for which, in series [4], the “Guinea Pig Heart/Blood Ratio” value came to 16 and the “5 Minute Guinea Pig % HT Uptake” value is on record as 2.11%.

For the compound `CSc1ccc(C=NCC(C)(CN=Cc2ccc(SC)cc2O)CN=Cc2ccc(SC)cc2O)c(O)c1` (centres unmarked) [R5=H, R6=SCH3, R7=H, R8=H, R3=H, R4=CH3, 3-Methylthiophenol, 6,6'-[[2-[[[(4-methylthio-2-hydroxyphenyl)methylene]amino]methyl]-2-methyl-1,3-propanediyl]bis(nitrilomethylidyne)]bis-], the “5 Minute Guinea Pig % HT Uptake” value in series [4] was determined as 1.72%.

Take `COC(=O)c1ccc(O)c(C=NCC(C)(CN=Cc2cc(C(=O)OC)ccc2O)CN=Cc2cc(C(=O)OC)ccc2O)c1` (centres unmarked) [methyl-4-hydroxybenzoate, 3,3'-[[2-[[[(5-carbomethoxy-2-hydroxyphenyl)methylene]amino]methyl]-2-methyl-1,3-propanediyl]bis(nitrilomethylidyne)]bis-]: the “5 Minute Guinea Pig % HT Uptake” value in series [4] is 1.23%.

Turning to `COc1ccc(COCC(CN=Cc2ccccc2O)(CN=Cc2ccccc2O)CN=Cc2ccccc2O)cc1` (centres unmarked) [phenol, 2,2'-[[2-[[[2-hydroxyphenyl)methylene]amino]methyl]-2-(4-methoxyphenyl)methoxymethyl-1,3-propanediyl]bis(nitrilomethylidyne)]bis-], the “5 Minute Guinea Pig % HT Uptake” value in series [4] came to 1.08%.

Take `CCCCCCCC(=O)OCC(CN=Cc1ccccc1O)(CN=Cc1ccccc1O)CN=Cc1ccccc1O` (centres unmarked) [phenol, 2,2'-[[2-[[[(2-hydroxypheny)methylene]amino]methyl]-2-octanoyloxymethyl-1,3-propanediyl]bis(nitrilomethylidyne)]bis-]: in series [4], the “5 Minute Guinea Pig % HT Uptake” value was found to be 0.88%.

For `COc1cc(COCC(CN=Cc2ccccc2O)(CN=Cc2ccccc2O)CN=Cc2ccccc2O)cc(OC)c1OC` (centres unmarked) [phenol, 2,2'-[[2-[[[(2-hydroxyphenyl)methylene]amino]methyl]-2-(3,4,5-trimethoxyphenyl)methoxymethyl-1,3-propanediyl]bis(nitrilomethylidyne)]bis-], the “5 Minute Guinea Pig % HT Uptake” value in series [4] was 1.00%.

On to `CCOCC(CN=Cc1ccccc1O)(CN=Cc1ccccc1O)CN=Cc1ccccc1O` (centres unmarked) [phenol, 2,2'-[[2-[[[(2-hydroxyphenyl)methylene]amino]methyl]-2-ethoxymethyl-1,3-propanediyl]bis(nitrilomethylidyne)]bis-], for which, in series [4], the “5 Minute Guinea Pig % HT Uptake” value came out at 1.71%.

Turning to `COCCOCC(CN=Cc1ccccc1O)(CN=Cc1ccccc1O)CN=Cc1ccccc1O` (centres unmarked) [phenol, 2,2'-[[2-[[[(2-hydroxyphenyl)methylene]amino]methyl]-2-methoxyethoxymethyl-1,3-propanediyl]bis(nitrilomethylidyne)]bis-], the “5 Minute Guinea Pig % HT Uptake” value in series [4] was determined as 1.01%.

Take `COCC(CN=Cc1ccccc1O)(CN=Cc1ccccc1O)CN=Cc1ccccc1O` (centres unmarked) [phenol, 2,2'-[[2-[[[(2-hydroxyphenyl)methylene]amino]methyl]-2-methoxymethyl-1,3-propanediyl]bis(nitrilomethylidyne)]bis-]: the “5 Minute Guinea Pig % HT Uptake” value in series [4] came out at 1.44%.

`Oc1ccccc1C=NCC(CN=Cc1ccccc1O)(CN=Cc1ccccc1O)COCc1ccccc1` (centres unmarked) [phenol, 2,2'-[[2-[[[(2-hydroxyphenyl)methylene]amino]methyl]-2-phenylmethoxymethyl-1,3-propanediyl]bis(nitrilomethylidyne)]bis-]: the “5 Minute Guinea Pig % HT Uptake” value in series [4] is reported as 1.60%.

As for `C=CCOCC(CN=Cc1ccccc1O)(CN=Cc1ccccc1O)CN=Cc1ccccc1O` (centres unmarked) [phenol, 2,2'-[[2-[[[(2-hydroxyphenyl)methylene]amino]methyl]-2-propenyloxymethyl-1,3-propanediyl]bis(nitrilomethylidyne)]bis-], in series [4], the “5 Minute Guinea Pig % HT Uptake” value is reported as 1.09%.

Regarding `CCCOCC(CN=Cc1ccccc1O)(CN=Cc1ccccc1O)CN=Cc1ccccc1O` (centres unmarked) [phenol, 2,2'-[[2-[[[(2-hydroxyphenyl)methylene]amino]methyl]-2-propoxymethyl-1,3-propanediyl]bis(nitrilomethylidyne)]bis-], in series [4], the “Guinea Pig Heart/Blood Ratio” value is 18 and the “5 Minute Guinea Pig % HT Uptake” value worked out at 1.48%.

Take `CCC(=NCC(C)(CN=C(CC)c1ccccc1O)CN=C(CC)c1ccccc1O)c1ccccc1O` (centres unmarked) [phenol, 2,2'-[[2-[[[(2-hydroxyphenyl)propylene]amino]methyl]-2-methyl-1,3-propanediyl]bis(nitrilopropylidyne)]bis-]: the “5 Minute Guinea Pig % HT Uptake” value in series [4] is 0.76%.

With `Oc1ccccc1C=NCC(CN=Cc1ccccc1O)(CN=Cc1ccccc1O)COc1cccc2ccccc12` (stereo not drawn) [phenol, 2,2'[[2-[[[(2-hydroxyphenyl)methylene]amino]methyl]-2-α-napthoxymethyl-1,3-propanediyl]bis(nitrilomethylidyne)]bis-], the “5 Minute Guinea Pig % HT Uptake” value in series [4] amounted to 0.72%.

Take `CCCCCCOCC(CN=Cc1ccccc1O)(CN=Cc1ccccc1O)CN=Cc1ccccc1O` (centres unmarked) [phenol, 2,2,'-[[2-[[[(2-hydroxyphenyl)methylene]amino]methyl]-2-hexyloxymethyl-1,3-propanediyl]bis(nitrilomethylidyne)]bis-]: the “5 Minute Guinea Pig % HT Uptake” value in series [4] came out at 1.19%.

Regarding “phenol, 2,2'-[[2-[[[(2-hydroxyphenyl)methylene]amino]methyl]-2-(4-methoxy-4-methyl)pentyl-1,3-propanediyl]bis(nitrilomethylidyne)]bis-”, in series [4], the “5 Minute Guinea Pig % HT Uptake” value is listed as 1.61%.
